Assay results published in US8383629B2, “Inhibitors of 11β-hydroxysteroid dehydrogenase type 1” (Vitae Pharmaceuticals, Inc., priority 2008, dated 2013).
pIC50: −log10 of the molar value.

Target: T1, human 11β-HSD1 (Homo sapiens, UniProt P28845)
T1 construct: expressed in transfected cells; host or cells: CHO cells (microsomes)
Experiment: Inhibition of microsomal preparation of 11β-HSD1 (SPA, Biological Test Example 1)
Format: biochemical
Conditions: for inhibition at 0.111 µM: 111 nM; for pIC50: microsomes from CHO cells overexpressing human 11β-HSD1, read-out: IC50 Range
Summary of the method: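 Microsomes from CHO cells overexpressing human 11β-HSD1 reduced [3H]cortisone (160 nM in substrate solution, with 2 mM NADPH, HEPES pH 7.4) for 90 min at rt after a 10 min compound preincubation. Compounds were run as 8-point half-log DMSO dilutions from 0.1 mM. 18β-glycyrrhetinic acid stopped the reaction, and anti-cortisol antibody SPA beads read [3H]cortisol.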

T1 sequence (P28845 whole entry): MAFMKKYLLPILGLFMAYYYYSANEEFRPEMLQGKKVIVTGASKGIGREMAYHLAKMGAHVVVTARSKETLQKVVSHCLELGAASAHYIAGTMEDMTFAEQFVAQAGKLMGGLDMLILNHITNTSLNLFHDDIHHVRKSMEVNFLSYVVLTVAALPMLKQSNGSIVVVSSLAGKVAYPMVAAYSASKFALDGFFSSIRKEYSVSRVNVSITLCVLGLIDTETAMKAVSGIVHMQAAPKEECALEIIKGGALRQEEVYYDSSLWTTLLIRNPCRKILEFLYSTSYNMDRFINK

| SMILES | inhibition at 0.111 µM | pIC50 |
| --- | --- | --- |
| CN1C(=O)C2(CCN(C(=O)CCc3ccccc3C(F)(F)F)CC2)c2cc(C#N)ccc21 [EXAMPLE 79, 1-methyl-2-oxo-1′-(3-(2-(trifluoromethyl)phenyl)propanoyl)spiro[indoline-3,4′-piperidine]-5-carbonitrile] | 51.4% | 6.00 to 7.00 |
| NC(=O)CC1CC2(CCN(C(=O)CCc3ccccc3C(F)(F)F)CC2)c2c(Cl)cccc21 (centres unmarked) [EXAMPLE 80, 2-(7-chloro-1′-(3-(2-(trifluoromethyl)phenyl)propanoyl)-2,3-dihydrospiro[indene-1,4′-piperidine]-3-yl)acetamide] | 95.1% | > 7.00 |
| CCOC(=O)CC1CC2(CCN(C(=O)N(CC)Cc3c(F)cccc3Cl)CC2)c2c(Br)cccc21 (centres unmarked) [EXAMPLE 81] | 59.2% | > 7.00 |
| CCOC(=O)CC1CC2(CCN(C(=O)NCc3ccccc3OCC)CC2)c2c(Br)cccc21 (centres unmarked) [EXAMPLE 82, Ethyl 2-(7-bromo-1′-(2-ethoxybenzylcarbamoyl)-2,3-dihydrospiro[indene-1,4′-piperidine]-3-yl)acetate] | 28.6% | 6.00 to 7.00 |
| O=C(O)CC1CC2(CCN(C(=O)NCc3cc(F)c(F)cc3F)CC2)c2c(Br)cccc21 (centres unmarked) [EXAMPLE 83, 2-(7-bromo-1′-(2,4,5-trifluorobenzylcarbamoyl)-2,3-dihydrospiro[indene-1,4′-piperidine]-3-yl)acetic acid] | 10.9% | 6.00 to 7.00 |
| CCOc1ccccc1CNC(=O)N1CCC2(CC1)CC(CC(=O)O)c1cccc(Br)c12 (centres unmarked) [EXAMPLE 84, 2-(7-bromo-1′-(2-ethoxybenzylcarbamoyl)-2,3-dihydrospiro[indene-1,4′-piperidine]-3-yl)acetic acid] | 42.6% | 6.00 to 7.00 |
| O=C(NCc1ccccc1-c1ccccc1)N1CCC2(CC1)OCc1ccccc12 [EXAMPLE 85, N-(biphenyl-2-ylmethyl)-3H-spiro[isobenzofuran-1,4′-piperidine]-1′-carboxamide] | 19.4% | 6.00 to 7.00 |
| CCOC(=O)CC1CC2(CCN(C(=O)NCc3ccccc3C)CC2)c2c(Br)cccc21 (centres unmarked) [EXAMPLE 86, Ethyl 2-(7-bromo-1′(2-methylbenzylcarbamoyl)-2,3-dihydrospiro[indene-1,4′-piperidine]-3-yl)acetate] | 58.7% | > 7.00 |
| Cc1ccccc1CNC(=O)N1CCC2(CC1)CC(CC(=O)O)c1cccc(Br)c12 (centres unmarked) [EXAMPLE 87, 2-(7-bromo-1′-(2-methylbenzylcarbamoyl)-2,3-dihydrospiro[indene-1,4′-piperidine]-3-yl)acetic acid] | 57.2% | > 7.00 |
| Cc1ccccc1CNC(=O)N1CCC2(CC1)CC(CC(=O)N1CCN(C(=O)OC(C)(C)C)CC1)c1cccc(Br)c12 (centres unmarked) [EXAMPLE 88, tert-butyl 4-(2-(7-bromo-1′-(2-methylbenzylcarbamoyl)-2,3-dihydrospiro[indene-1,4′-piperidine]-3-yl)acetyl)piperazine-1-carboxylate] | 66.2% | > 7.00 |
| CCOC(=O)CC1CC2(CCN(C(=O)NCc3c(C)cccc3Cl)CC2)c2c(Br)cccc21 (centres unmarked) [EXAMPLE 89, Ethyl 2-(7-bromo-1′-(2-chloro-6-methylbenzylcarbamoyl)-2,3-dihydrospiro[indene-1,4′-piperidine]-3-yl)acetate] | 61.2% | > 7.00 |
| Cc1ccccc1CNC(=O)N1CCC2(CC1)CC(CC(=O)N1CCNCC1)c1cccc(Br)c12 (centres unmarked) [EXAMPLE 90, 7-bromo-N-(2-methylbenzyl)-3-(2-oxo-2-(piperazin-1-yl)ethyl)-2,3-dihydrospiro[indene-1,4′-piperidine]-1′-carboxamide] | 52.4% | 6.00 to 7.00 |
| Cc1cccc(Cl)c1CNC(=O)N1CCC2(CC1)CC(CC(=O)O)c1cccc(Br)c12 (centres unmarked) [EXAMPLE 91, 2-(7-bromo-1′-(2-chloro-6-methylbenzylcarbamoyl)-2,3-dihydrospiro[indene-1,4′-piperidine]-3-yl)acetic acid] | 64.1% | > 7.00 |
| CCOC(=O)CC1CC2(CCN(C(=O)NCc3ccccc3C(F)(F)F)CC2)c2c(Br)cccc21 (centres unmarked) [EXAMPLE 92, Ethyl 2-(7-bromo-1′-(2-(trifluoromethyl)benzylcarbamoyl)-2,3-dihydrospiro[indene-1,4′-piperidine]-3-yl)acetate] | 70.5% | > 7.00 |
| CCOC(=O)CC1CC2(CCN(C(=O)NCc3ccccc3S(C)(=O)=O)CC2)c2c(Br)cccc21 (centres unmarked) [EXAMPLE 93, Ethyl 2-(7-bromo-1′-(2-(methylsulfonyl)benzylcarbamoyl)-2,3-dihydrospiro[indene-1,4′-piperidine]-3-yl)acetate] | 18.5% | 6.00 to 7.00 |
| O=C(O)CC1CC2(CCN(C(=O)NCc3ccccc3C(F)(F)F)CC2)c2c(Br)cccc21 (centres unmarked) [EXAMPLE 94, 2-(7-bromo-1′-(2-(trifluoromethyl)benzylcarbamoyl)-2,3-dihydrospiro[indene-1,4′-piperidine]-3-yl)acetic acid] | 75.7% | > 7.00 |
| CCOC(=O)CC1CC2(CCN(C(=O)NCc3ccccc3OC(C)C)CC2)c2c(Br)cccc21 (centres unmarked) [EXAMPLE 95, Ethyl 2-(7-bromo-1′-(2-isopropoxybenzylcarbamoyl)-2,3-dihydrospiro[indene-1,4′-piperidine]-3-yl)acetate] | 19.9% | 6.00 to 7.00 |
| O=C(O)CC1CC2(CCN(C(=O)NCc3ccccc3N3CCCC3)CC2)c2c(Br)cccc21 (centres unmarked) [EXAMPLE 96, 2-(7-bromo-1′-(2-(pyrrolidin-1-yl)benzylcarbamoyl)-2,3-dihydrospiro[indene-1,4′-piperidine]-3-yl)acetic acid] | 48.9% | 6.00 to 7.00 |
| CS(=O)(=O)c1ccccc1CNC(=O)N1CCC2(CC1)CC(CC(=O)O)c1cccc(Br)c12 (centres unmarked) [EXAMPLE 97, 2-(7-bromo-1′-(2-(methylsulfonyl)benzylcarbamoyl)-2,3-dihydrospiro[indene-1,4′-piperidine]-3-yl)acetic acid] | 5.6% | 6.00 to 7.00 |
| CC(C)Oc1ccccc1CNC(=O)N1CCC2(CC1)CC(CC(=O)O)c1cccc(Br)c12 (centres unmarked) [EXAMPLE 98, 2-(7-bromo-1′-(2-isopropoxybenzylcarbamoyl)-2,3-dihydrospiro[indene-1,4′-piperidine]-3-yl)acetic acid] | 48.2% | > 7.00 |
| O=C1CC2(CCN(C(=O)NCc3ccccc3OC(F)(F)F)CC2)c2c(Br)cccc21 [EXAMPLE 99, 7-bromo-3-oxo-N-(2-(trifluoromethoxy)benzyl)-2,3-dihydrospiro[indene-1,4′-piperidine]-1′-carboxamide] | 75.6% | > 7.00 |
| CN1C(=O)c2cccc(Cl)c2C12CCN(C(=O)NCc1ccccc1C(F)(F)F)CC2 [EXAMPLE 100, 7-chloro-2-methyl-3-oxo-N-(2-(trifluoromethyl)benzyl)spiro[isoindoline-1,4′-piperidine]-1′-carboxamide] | 46.8% | 6.00 to 7.00 |
| CCOC(=O)CC1CC2(CCN(C(=O)N(C)Cc3ccccc3C(F)(F)F)CC2)c2c(Br)cccc21 (centres unmarked) [EXAMPLE 101, Ethyl 2-(7-bromo-1′-(methyl(2-(trifluoromethyl)benzyl)carbamoyl)-2,3-dihydrospiro[indene-1,4′-piperidine]-3-yl)acetate] | 42.6% | 6.00 to 7.00 |
| CN(Cc1ccccc1C(F)(F)F)C(=O)N1CCC2(CC1)CC(CC(=O)O)c1cccc(Br)c12 (centres unmarked) [EXAMPLE 102, 2-(7-bromo-1′-(methyl(2-(trifluoromethyl)benzyl)carbamoyl)-2,3-dihydrospiro[indene-1,4′-piperidine]-3-yl)acetic acid] | 64.4% | > 7.00 |
| CCOC(=O)CC1CC2(CCN(C(=O)N(C)Cc3ccccc3F)CC2)c2c(Br)cccc21 (centres unmarked) [EXAMPLE 103, Ethyl 2-(7-bromo-1′-((2-fluorobenzyl)(methyl)carbamoyl)-2,3-dihydrospiro[indene-1,4′-piperidine]-3-yl)acetate] | 79.4% | > 7.00 |
| CN(Cc1ccccc1F)C(=O)N1CCC2(CC1)CC(CC(=O)O)c1cccc(Br)c12 (centres unmarked) [EXAMPLE 104, 2-(7-bromo-1′((2-fluorobenzyl)(methyl)carbamoyl)-2,3-dihydrospiro[indene-1,4′-piperidine]-3-yl)acetic acid] | 88.7% | > 7.00 |
| O=C1CC2(CCN(C(=O)OCc3ccccc3C(F)(F)F)CC2)c2c(Br)cccc21 [EXAMPLE 105, 2-(trifluoromethyl)benzyl 7-bromo-3-oxo-2,3-dihydrospiro[indene-1,4′-piperidine]-1′-carboxylate] | 82.3% | > 7.00 |
| O=C1CC2(CCN(C(=O)COc3ccccc3C(F)(F)F)CC2)c2c(Br)cccc21 [EXAMPLE 106, 7-bromo-1′-(2-(2-(trifluoromethyl)phenoxy)acetyl)spiro[indene-1,4′-piperidin]-3(2H)-one] |  | > 7.00 |
| O=C1CC2(CCN(C(=O)CNc3ccccc3C(F)(F)F)CC2)c2c(Br)cccc21 [EXAMPLE 107] |  | 6.00 to 7.00 |
